Results published in publication PMC8230565, “Bisavenathramide Analogues as Nrf2 Inductors and Neuroprotectors in In Vitro Models of Oxidative Stress and Hyperphosphorylation” (Antioxidants, 2021).
Entries after “also recorded” stand apart in the source; their conditions may differ.

What was measured:
[1] = tested on: Nrf2; experiment: Nrf2 induction, luciferase assay in AREc32 cells; type: cell-based; conditions: Arec32, 24 h, read-out: CD (concentration that doubles luciferase activity)
Experimental: AREc32 cells (kindly shared by Dr. Professor Ronald C. Wolf, University of Dundee, Dundee, UK) were grown in Dulbecco’s modified Eagle medium (DMEM) with glutamax, supplemented with 10% fetal bovine serum (FBS), 1% of antibiotics penicillin–streptomycin, and geneticin (0.8 mg/mL, G418) (GIBCO, Madrid, Spain). Cells were harvested in a […] flask with 11 mL of the specified medium, incubated at 37 °C and 5% CO2, and they were transferred to a new flask every 4–6 days, when the confluence was around 80%. Cells were seeded in 96-well white plates (20,000 cells/well) using 100 μL/well. After 24 h, cells were treated with compounds at desired concentrations (1, 5, 10, 15 μM) for 24 h, including tert-butyl hydroquinone (TBHQ, 10 μM) as a positive control. Another 24 h later, luciferase activity was measured through a bioluminescence assay using a “Luciferase assay system” (Promega E1500, Madison, WI, USA), following the protocol given by the provider, and quantifying luminescence in an Orion II microplate luminometer (Berthold, Germany). Measurements were performed by duplicate, and the values were normalized to basal luminescence considered as 1. Nrf2 induction potency was expressed as CD values, i.e., the concentrations required to double the luciferase activity, and are calculated from dose–response curves generated by plotting fold induction of control conditions vs. compound concentration, and fitted by non-linear regression and data interpolated to value 2.
The ability of our compounds to induce Nrf2 was evaluated in the AREc32 cell line, an MCF7 stable clone that is transfected with eight copies of the luciferase reporter gene immediately after the ARE sequence. Therefore, Nrf2 activation and the subsequent transcription of the genes dependent on the ARE element also leads to expression of luciferase, which can be quantitated using a luminescence assay. AREc32 cells were incubated for 24 h with 0.3, 3, 10, 30, and 60 μM concentrations of compounds 3, and a luminescence measurement allowed CD values to be obtained. This parameter characterizes the Nrf2-inducing ability of each compound and represents the concentration required to double the luciferase activity compared to its basal expression.

[2] = Ferric reducing antioxidant power (FRAP) assay; design: key to FRAP TEAC: trolox equivalents (TEAC), relative to trolox; conditions: for FRAP TEAC: 30 µM, relative to trolox; for FRAP nmol Fe2+ at 30 µM: 30 µM compound, n in brackets
Experimental: A ferric reducing antioxidant power (FRAP) kit assay purchased from Sigma-Aldrich (Madrid, Spain) was employed for the experiments. The antioxidant solutions, FRAP assay buffer solution, FeCl3 solution, and FRAP probe solution were kept in ice during the preparation of the plate. A calibration standard curve was prepared by using the 2 mM ferrous standard solution provided in the FRAP kit assay. Appropriate aliquots of this solution were taken and diluted up to a 200 μL final volume with FRAP buffer. The final ferrous concentrations measured in the well were: 0, 20, 40, 60, 80, and 100 μM. Each concentration value was prepared and measured by triplicate. Stock solutions of compounds 3, as well as reference compounds trolox and ferulic acid, were freshly prepared in 95% ethanol at […]. Aliquots of 10 μL of compounds 3 and the reference compounds were mixed with 19 μL FeCl3 solution and 19 μL FRAP probe solution, and then completed to a final volume of 200 μL with FRAP assay buffer solution. The final concentration of antioxidants and references was 30 μM. Compounds 3, reference compounds, as well as the corresponding blank solutions (one for each compound to be assayed, avoiding the chromogenic FRAP probe), and positive control were thoroughly mixed in vortex for 1–2 min with the reaction chromogenic media, and then were incubated under darkness at 37 °C in the dry bath, and using the device for support well-plates. Each compound to be assayed and the reference antioxidant compounds were prepared and measured by triplicate. The absorbance values were measured at 594 nm after 5 min of reaction and, to assure complete reaction, the absorbance values after 60 min of incubation at 37 °C in the dry bath were also measured. The absorbance values of the sample antioxidant compounds were corrected by subtracting the corresponding absorbance values of the blanks, and then they were introduced in the calibration curve and the ferrous equivalents were determined. The reference antioxidants employed for this assay were trolox and ferulic acid, which were obtained from Sigma-Aldrich (Madrid, Spain). Ultrapure water was obtained from a Milli-Q Direct 8 system (Millipore, Molsheim, France).
In order to achieve a broader insight into the antioxidant profile of our compounds, we also examined them using a single electron transfer (SET)-based method, namely the ferric reducing antioxidant power (FRAP) assay, which measures the ability of an antioxidant to reduce the ferric ion in the TPTZ (2,4,6-tri(2-pyridyl)-1,3,5-triazine)-Fe(III) complex.

[3] = tested on: SH-SY5Y cells; experiment: Superoxide production (DHE) in SH-SY5Y cells under R/O; type: cell-based; conditions: 1 and 10 µM
Experimental: To evaluate superoxide production, we used the fluorescent dye dihydroethidium (DHE). SH-SY5Y cells were seeded in 96-well clear-bottom black plates (6 × 10^4 cells/well). After 24 h, cells were treated with compound 3i at the desired concentrations for 24 h. Thereafter, treatments were eliminated and cells were loaded with DHE (20 μM) for 45 min. […] Fluorescence was evaluated in a Nikon T1000 fluorescence microscope at 490/630 excitation/emission wavelengths, respectively. Images were quantitated using Fiji software, and data are expressed as the increase after 6 h exposure to ROS generator, normalized to basal conditions as 100% increase.
To further evaluate its mechanism of action, and considering the importance of exacerbated oxidative stress in neurodegenerative diseases, we evaluated its capacity to reduce free radical species production using the above-mentioned R/O toxic combination to generate ROS and measure the influence of 3i in the total ROS production by using the H2DCFDA dye, and also the specific superoxide production by using the selective dye dihydroetidium (DHE). […] This reduction might be related to a combination of direct scavenger effect and an increased expression of Nrf2-dependent antioxidant genes, such as HO-1.

[4] = tested on: SH-SY5Y cells; experiment: Neuroprotection against rotenone/oligomycin A in SH-SY5Y cells (MTT); type: cell-based; conditions: increasing concentrations; R/O 30/10 µM

Row | Structure (SMILES) | EC (2-fold luciferase activity) [1] | FRAP TEAC [2] | FRAP nmol Fe2+ at 30 µM [2] | superoxide production (DHE) [3] | neuroprotective effect against rotenone/oligomycin A by concentration [4] | antioxidant activity in FRAP compared with references [2]
1 | COC(=O)C1=C(C)N(Cc2ccccc2)C(=O)/C1=C\c1ccccc1 [Compound 3a, Methyl (Z)-1-Benzyl-4-benzylidene-2-methyl-5-oxo-4,5-dihydro-1H-pyrrole-3-carboxylate] | 30.2 ± 1.89 µM | 0.62 |  |  |  | 
2 | COC(=O)C1=C(C)N(Cc2ccccc2)C(=O)/C1=C\c1ccc(OC)cc1 [Compound 3b, Methyl (Z)-1-Benzyl-4-(4-methoxybenzylidene)-2-methyl-5-oxo-4,5-dihydro-1H-pyrrole-3-carboxylate] | 18 ± 1.84 µM | 0.63 | 1.44 ± 0.02 (3) nmol Fe^2+ |  |  | 
3 | COC(=O)C1=C(C)N(Cc2ccccc2)C(=O)/C1=C\c1ccc(Cl)cc1 [Compound 3c, Methyl (Z)-1-Benzyl-4-(4-chlorobenzylidene)-2-methyl-5-oxo-4,5-dihydro-1H-pyrrole-3-carboxylate] | 15 ± 0.8 µM | 0.62 | 1.41 ± 0.03 (3) nmol Fe^2+ |  |  | 
4 | COC(=O)C1=C(C)N(CCc2ccccc2)C(=O)/C1=C\c1ccc2c(c1)OCO2 [Compound 3d, Methyl (Z)-4-(Benzo[d](1,3)dioxol-5-ylmethylene)-2-methyl-5-oxo-1-phenethyl-4,5-dihydro-1H-pyrrole-3-carboxylate] | 17.9 ± 8.58 µM | 0.62 | 1.41 ± 0.04 (3) nmol Fe^2+ |  |  | 
5 | COC(=O)C1=C(C)N(CCc2ccccc2)C(=O)/C1=C\c1ccc(OC)cc1OC [Compound 3e, Methyl (Z)-4-(2,4-Dimethoxybenzylidene)-2-methyl-5-oxo-1-phenethyl-4,5-dihydro-1H-pyrrole-3-carboxylate] | 10.4 ± 0.8 µM | 0.63 | 1.44 ± 0.01 (3) nmol Fe^2+ |  |  | 
6 | COC(=O)C1=C(C)N(CCc2ccccc2)C(=O)/C1=C\c1cc(OC)c(OC)cc1OC [Compound 3f, Methyl (Z)-2-Methyl-5-oxo-1-phenethyl-4-(2,4,5-trimethoxybenzylidene)-4,5-dihydro-1H-pyrrole-3-carboxylate] | 31.1 ± 6.21 µM | 0.62 | 1.42 ± 0.04 (3) nmol Fe^2+ |  |  | 
7 | COC(=O)C1=C(C)N(CCc2ccccc2)C(=O)/C1=C\c1cc(OC)c(OC)c(OC)c1 [Compound 3g, Methyl (Z)-2-Methyl-5-oxo-1-phenethyl-4-(3,4,5-trimethoxybenzylidene)-4,5-dihydro-1H-pyrrole-3-carboxylate] |  | 0.60 | 1.36 ± 0.10 (3) nmol Fe^2+ |  |  | 
8 | COC(=O)C1=C(C)N(CCc2ccccc2)C(=O)/C1=C\c1ccc(OC)c(O)c1 [Compound 3h, Methyl (Z)-4-(3-Hydroxy-4-methoxybenzylidene)-2-methyl-5-oxo-1-phenethyl-4,5-dihydro-1H-pyrrole-3-carboxylate] | 36.1 ± 418 µM | 0.71 | 1.63 ± 0.04 (3) nmol Fe^2+ |  |  | 
9 | COC(=O)C1=C(C)N(CCc2ccccc2)C(=O)/C1=C\c1ccc(O)c(O)c1 [Compound 3i, Methyl (Z)-4-(3,4-Dihydroxybenzylidene)-2-methyl-5-oxo-1-phenethyl-4,5-dihydro-1H-pyrrole-3-carboxylate] | < 10 µM | 1.01 | 2.30 ± 0.08 (3) nmol Fe^2+ | reduce superoxide production at both concentrations | statistically significant neuroprotective effect at 0.1 and 1 µM; also recorded: this activity was lost at 10 µM | more active than ferulic acid and slightly more active than trolox
10 | COC(=O)C1=C(C)N(CCc2ccccc2)C(=O)/C1=C\c1ccc(OCc2ccccc2F)c(OC)c1 [Compound 3j, Methyl (Z)-4-[4-((2-Fluorobenzyl)oxy)-3-methoxybenzylidene]-2-methyl-5-oxo-1-phenethyl-4,5-dihydro-1H-pyrrole-3-carboxylate] | 11.9 ± 2.83 µM | 0.70 | 1.60 ± 0.04 (3) nmol Fe^2+ |  |  | 
11 | COC(=O)C1=C(C)N(CCc2ccccc2)C(=O)/C1=C\c1ccc(OCc2ccccc2Cl)c(OC)c1 [Compound 3k, Methyl (Z)-4-[4-((2-Chlorobenzyl)oxy)-3-methoxybenzylidene]-2-methyl-5-oxo-1-phenethyl-4,5-dihydro-1H-pyrrole-3-carboxylate] | < 10 µM | 0.71 | 1.63 ± 0.01 (3) nmol Fe^2+ |  |  | 
12 | COC(=O)C1=C(C)N(CCc2ccccc2)C(=O)/C1=C\c1ccc(OCc2ccc(Cl)cc2)c(OC)c1 [Compound 3l, Methyl (Z)-4-[4-((4-Chlorobenzyl)oxy)-3-methoxybenzylidene]-2-methyl-5-oxo-1-phenethyl-4,5-dihydro-1H-pyrrole-3-carboxylate] | 14 ± 4.45 µM | 0.71 | 1.62 ± 0.03 (3) nmol Fe^2+ |  |  | 
13 | COC(=O)C1=C(C)N(CCc2ccc(OC)c(OC)c2)C(=O)/C1=C\c1ccc(OCc2ccc(Cl)cc2)c(OC)c1 [Compound 3m, Methyl (Z)-4-[4-((4-Chlorobenzyl)oxy)-3-methoxybenzylidene]-1-(3,4-dimethoxyphenethyl)-2-methyl-5-oxo-4,5-dihydro-1H-pyrrole-3-carboxylate] | 21.4 ± 5.72 µM | 0.70 | 1.59 ± 0.05 (3) nmol Fe^2+ |  |  | 
14 | COC(=O)C1=C(C)N(CCc2ccc(OC)c(OC)c2)C(=O)/C1=C\c1ccc(OCc2ccccc2Cl)c(OC)c1 [Compound 3n, Methyl (Z)-4-[4-((2-Chlorobenzyl)oxy)-3-methoxybenzylidene]-1-(3,4-dimethoxyphenethyl)-2-methyl-5-oxo-4,5-dihydro-1H-pyrrole-3-carboxylate] | 14.3 ± 3.89 µM | 0.69 | 1.59 ± 0.02 (3) nmol Fe^2+ |  |  | 
15 | COC(=O)C1=C(C)N(CCc2ccccc2)C(=O)/C1=C\c1c[nH]c2ccccc12 [Compound 3o, Methyl (Z)-4-((1H-Indol-3-yl)methylene)-2-methyl-5-oxo-1-phenethyl-4,5-dihydro-1H-pyrrole-3-carboxylate] | 36 ± 10.6 µM | 0.79 | 1.80 ± 0.07 (3) nmol Fe^2+ |  |  | 
